Patent publication USRE39591E1, “6-O-substituted ketolides having antibacterial activity” (Abbott Laboratories, priority 1996, dated 2007)
Values after ≈ are worked out from the molar mass of the structure shown.

Test system: up to 32 different microorganisms
Experiment: in vitro antibacterial activity (MIC), agar dilution on Brain Heart Infusion (BHI) agar with Steers replicator
Type: cell-based
Conditions: unit assumed
Procedure, shortened: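 Erythromycin A served as the same-class reference for test-to-test comparability. Test compound was tested over twelve successive dilutions in BHI agar; plates were incubated 20 to 24 hours at 35°-37° C, with MIC taken as the lowest concentration showing no growth, slight haze, or sparse colonies.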

[1] = Candida albicans CCH 442 (code TT)
[2] = Enterococcus faecism ATCC 8043 (code II)
[3] = Escherichia coli DC-2 (code SS)
[4] = Escherichia coli JUHL (code QQ)
[5] = Haemophilis influenzae DILL AMP R (code WW)
[6] = Micrococcus luteus ATCC 4698 (code PP)
[7] = Micrococcus luteus ATCC 9341 (code OO)
[8] = Mycobacterium smegmatis ATCC 114 (code UU)
[9] = Nocardia Asteroides ATCC9970 (code VV)
[10] = Staphylococcus aureus 1775 (code GG)
[11] = Staphylococcus aureus A5177 (code BB)
[12] = Staphylococcus aureus A-5278 (code CC)
[13] = Staphylococcus aureus ATCC 6538P (code AA)
[14] = Staphylococcus aureus CMX 553 (code FF)
[15] = Staphylococcus aureus CMX 642A (code DD)
[16] = Staphylococcus aureus NCTC10649M (code EE)
[17] = Staphylococcus epidermidis 3519 (code HH)
[18] = Streptococcus Pneumonia 5649 (code ZZA)
[19] = Streptococcus Pneumonia 5979 (code ZZ)
[20] = Streptococcus Pneumonia ATCC6303 (code XX)
[21] = Streptococcus Pneumonia GYR 1171 (code YY)
[22] = Streptococcus agalactiae CMX 508 (code KK)
[23] = Streptococcus bovis A-5169 (code JJ)
[24] = Streptococcus pyogenes 930 (code MM)
[25] = Streptococcus pyogenes EES61 (code LL)
[26] = Streptococcus pyogenes PIU 2548 (code NN)

C=CCO[C@@]1(C)C[C@@H](C)C(=O)[C@H](C)[C@H]2NC(=O)O[C@]2(C)[C@@H](CC)OC(=O)[C@H](C)C(=O)[C@H](C)[C@H]1O[C@@H]1O[C@H](C)C[C@H](N(C)C)[C@H]1O [Example 102, Formula (IX): L is CO, T is NH, R is —CH2CH═CH2]
MIC [1]: > 100 µg/mL | MIC [2]: 0.78 µg/mL | MIC [3]: > 100 µg/mL | MIC [4]: > 100 µg/mL | MIC (Escherichia coli SS (code RR)): 1.56 µg/mL | MIC [5]: 64 µg/mL | MIC [6]: 0.78 µg/mL | MIC [7]: 0.2 µg/mL | MIC [8]: 25 µg/mL | MIC [9]: 1.56 µg/mL | MIC [10]: > 100 µg/mL | MIC [11]: 1.56 µg/mL | MIC [12]: > 100 µg/mL | MIC [13]: 0.78 µg/mL | MIC [14]: 1.56 µg/mL | MIC [15]: 1.56 µg/mL | MIC [16]: 0.78 µg/mL | MIC [17]: 1.56 µg/mL | MIC [18]: 0.25 µg/mL | MIC [19]: > 64 µg/mL | MIC [20]: 0.5 µg/mL | MIC [21]: 0.25 µg/mL | MIC [22]: 0.2 µg/mL | MIC [23]: 0.2 µg/mL | MIC [24]: > 100 µg/mL | MIC [25]: 0.2 µg/mL | MIC [26]: 0.2 µg/mL

CC[C@H]1OC(=O)[C@H](C)C(=O)[C@H](C)[C@@H](O[C@@H]2O[C@H](C)C[C@H](N(C)C)[C@H]2O)[C@@](C)(OCC=Cc2ccccc2)C[C@@H](C)C(=O)[C@H](C)[C@H]2NC(=O)O[C@@]21C [Example 103, Compound of Formula (IX): L is CO, T is NH, R is —CH2CH═CH-Phenyl]
MIC [1]: > 100 µg/mL | MIC [2]: 0.05 µg/mL | MIC [3]: 100 µg/mL | MIC [4]: 100 µg/mL | MIC (Escherichia coli SS (code RR)): 0.39 µg/mL | MIC [5]: 4 µg/mL | MIC [6]: 0.1 µg/mL | MIC [7]: 0.01 µg/mL | MIC [8]: 0.2 µg/mL | MIC [9]: 0.02 µg/mL | MIC [10]: > 100 µg/mL | MIC [11]: 0.1 µg/mL | MIC [12]: > 100 µg/mL | MIC [13]: 0.1 µg/mL | MIC [14]: 0.1 µg/mL | MIC [15]: 0.1 µg/mL | MIC [16]: 0.1 µg/mL | MIC [17]: 0.1 µg/mL | MIC [18]: 0.25 µg/mL | MIC [19]: 128 µg/mL | MIC [20]: 0.03 µg/mL | MIC [21]: 0.03 µg/mL | MIC [22]: 0.02 µg/mL | MIC [23]: 0.01 µg/mL | MIC [24]: 100 µg/mL | MIC [25]: 0.02 µg/mL | MIC [26]: 0.1 µg/mL

CCC1OC(=O)C(C)C(=O)C(C)C(OC2OC(C)CC(N(C)C)C2O)C(C)(OCC=Cc2ccc3[nH]c4ccccc4c3c2)CC(C)C(=O)C(C)C2NC(=O)OC12C (stereo not drawn) [Example 204, R is —CH2CH═CH-(3-carbazolyl)]
MIC (organism code AA): 0.1 µg/mL (≈ 0.124 µM) | MIC (organism code BB): 0.1 µg/mL (≈ 0.124 µM) | MIC (organism code CC): > 100 µg/mL | MIC (organism code DD): 0.1 µg/mL (≈ 0.124 µM) | MIC (organism code EE): 0.1 µg/mL (≈ 0.124 µM) | MIC (organism code FF): 0.1 µg/mL (≈ 0.124 µM) | MIC (organism code GG): > 100 µg/mL | MIC (organism code HH): 0.1 µg/mL (≈ 0.124 µM) | MIC (organism code II): 0.05 µg/mL (≈ 0.0622 µM) | MIC (organism code JJ): 0.01 µg/mL (≈ 0.0124 µM) | MIC (organism code KK): 0.01 µg/mL (≈ 0.0124 µM) | MIC (organism code LL): 0.01 µg/mL (≈ 0.0124 µM) | MIC (organism code MM): 3.1 µg/mL (≈ 3.86 µM) | MIC (organism code NN): 0.2 µg/mL (≈ 0.249 µM) | MIC (organism code OO): 0.02 µg/mL (≈ 0.0249 µM) | MIC (organism code PP): 0.1 µg/mL (≈ 0.124 µM) | MIC (organism code QQ): > 100 µg/mL | MIC (organism code RR): 0.78 µg/mL (≈ 0.97 µM) | MIC (organism code SS): > 100 µg/mL | MIC (organism code TT): > 100 µg/mL | MIC (organism code UU): 0.78 µg/mL (≈ 0.97 µM) | MIC (organism code VV): 0.1 µg/mL (≈ 0.124 µM) | MIC (organism code WW): 4 µg/mL (≈ 4.98 µM) | MIC (organism code XX): 0.06 µg/mL (≈ 0.0746 µM) | MIC (organism code YY): 0.06 µg/mL (≈ 0.0746 µM) | MIC (organism code ZZ): 8 µg/mL (≈ 9.95 µM) | MIC (organism code ZZA): 0.5 µg/mL (≈ 0.622 µM)

CC[C@H]1OC(=O)[C@H](C)C(=O)[C@H](C)[C@@H](O[C@@H]2O[C@H](C)C[C@H](N(C)C)[C@H]2O)[C@@](C)(OCCNCCc2ccccc2)C[C@@H](C)C(=O)[C@H](C)[C@@H](O)[C@]1(C)O [Example 10]
MIC [1]: > 100 µg/mL | MIC [2]: 6.2 µg/mL (≈ 8.6 µM) | MIC [3]: > 100 µg/mL | MIC [4]: > 100 µg/mL | MIC (Escherichia coli SS (code RR)): 1.56 µg/mL (≈ 2.16 µM) | MIC [5]: 64 µg/mL (≈ 88.8 µM) | MIC [6]: 1.56 µg/mL (≈ 2.16 µM) | MIC [7]: 0.2 µg/mL (≈ 0.277 µM) | MIC [8]: 12.5 µg/mL (≈ 17.3 µM) | MIC [9]: 1.56 µg/mL (≈ 2.16 µM) | MIC [10]: > 100 µg/mL | MIC [11]: 6.2 µg/mL (≈ 8.6 µM) | MIC [12]: > 100 µg/mL | MIC [13]: 6.2 µg/mL (≈ 8.6 µM) | MIC [14]: 6.2 µg/mL (≈ 8.6 µM) | MIC [15]: 6.2 µg/mL (≈ 8.6 µM) | MIC [16]: 6.2 µg/mL (≈ 8.6 µM) | MIC [17]: 6.2 µg/mL (≈ 8.6 µM) | MIC [18]: 4 µg/mL (≈ 5.55 µM) | MIC [19]: > 128 µg/mL | MIC [20]: 2 µg/mL (≈ 2.77 µM) | MIC [21]: 2 µg/mL (≈ 2.77 µM) | MIC [22]: 1.56 µg/mL (≈ 2.16 µM) | MIC [23]: 0.2 µg/mL (≈ 0.277 µM) | MIC [24]: > 100 µg/mL | MIC [25]: 0.39 µg/mL (≈ 0.541 µM) | MIC [26]: 1.56 µg/mL (≈ 2.16 µM)

CCC1OC(=O)C(C)C(=O)C(C)C(OC2OC(C)CC(N(C)C)C2O)C(C)(OCC=Cc2ccc(-n3cccc3)cc2)CC(C)C(=O)C(C)C2NC(=O)OC12C (stereo not drawn) [Example 282, Compound of Formula (IX): L is CO, T is NH2, R is —CH2CH═CH-(4-pyrrolylphenyl)]
MIC (organism code AA): 0.2 µg/mL | MIC (organism code BB): 0.1 µg/mL | MIC (organism code CC): 100 µg/mL | MIC (organism code DD): 0.2 µg/mL | MIC (organism code EE): 0.2 µg/mL | MIC (organism code FF): 0.1 µg/mL | MIC (organism code GG): 100 µg/mL | MIC (organism code HH): 0.2 µg/mL | MIC (organism code II): 0.05 µg/mL | MIC (organism code JJ): 0.01 µg/mL | MIC (organism code KK): ≤ 0.005 µg/mL | MIC (organism code LL): ≤ 0.005 µg/mL | MIC (organism code MM): 25 µg/mL | MIC (organism code NN): 0.1 µg/mL | MIC (organism code OO): 0.05 µg/mL | MIC (organism code PP): 0.2 µg/mL | MIC (organism code QQ): > 100 µg/mL | MIC (organism code RR): 0.78 µg/mL | MIC (organism code SS): > 100 µg/mL | MIC (organism code TT): > 100 µg/mL | MIC (organism code UU): 1.56 µg/mL | MIC (organism code VV): 0.2 µg/mL | MIC (organism code WW): 8 µg/mL | MIC (organism code XX): 0.03 µg/mL | MIC (organism code YY): 0.03 µg/mL | MIC (organism code ZZ): 36 µg/mL | MIC (organism code ZZA): 0.25 µg/mL

CCC1OC(=O)C(C)C(=O)C(C)C(OC2OC(C)CC(N(C)C)C2O)C(C)(OCC=Cc2ccc(-c3ccon3)s2)CC(C)C(=O)C(C)C2NC(=O)OC12C (stereo not drawn) [Example 292, Compound of Formula (IX): L is CO, T is NH, R is —CH2CH═CH-(5-(3-ixoxazolyl)-2-thiophenyl)]
MIC (organism code AA): 0.1 µg/mL | MIC (organism code BB): 0.1 µg/mL | MIC (organism code CC): > 100 µg/mL | MIC (organism code DD): 0.1 µg/mL | MIC (organism code EE): 0.1 µg/mL | MIC (organism code FF): 0.1 µg/mL | MIC (organism code GG): > 100 µg/mL | MIC (organism code HH): 0.05 µg/mL | MIC (organism code II): 0.02 µg/mL | MIC (organism code JJ): ≤ 0.005 µg/mL | MIC (organism code KK): 0.02 µg/mL | MIC (organism code LL): 0.01 µg/mL | MIC (organism code MM): 12.5 µg/mL | MIC (organism code NN): 0.05 µg/mL | MIC (organism code OO): 0.02 µg/mL | MIC (organism code PP): 0.1 µg/mL | MIC (organism code QQ): 50 µg/mL | MIC (organism code RR): 0.2 µg/mL | MIC (organism code SS): 100 µg/mL | MIC (organism code TT): > 100 µg/mL | MIC (organism code UU): 0.78 µg/mL | MIC (organism code VV): 0.02 µg/mL | MIC (organism code WW): 2 µg/mL | MIC (organism code XX): 0.03 µg/mL | MIC (organism code YY): 0.03 µg/mL | MIC (organism code ZZ): 16 µg/mL | MIC (organism code ZZA): 0.25 µg/mL
